Reference: patent US4416898A, “Therapeutic uses of methionine” (Pharmuka Laboratoires, priority 1982, dated 1983)

Key:
[1] = system: dopaminergic receptors (B lymphocytes); conditions: [^3 H spiperone] = 1 nM; L-methionine 500 mg/kg I.P. twice daily over 5 days; n = 10; *P < 0.01; control 17 ± 3
Procedure: (§1) Since nude mice have no thymus gland, all of the lymphocytes of the spleen thereof are of the B type. Thus, these mice have the advantage of presenting pure B lumphocytes for observation. […] The [^3 H] spiperone bindings to striatal membranes (see Europ. J. Pharmacol. 50, 283, 1978) and intact B lymphocytes (see J. Pharm. Pharmacol. 33, 102, 1981) were performed in the same animal.

[2] = biological target: dopaminergic receptors (striatum) (Mus musculus, UniProt P61168)
dopaminergic receptors (striatum), sequence (P61168 whole entry): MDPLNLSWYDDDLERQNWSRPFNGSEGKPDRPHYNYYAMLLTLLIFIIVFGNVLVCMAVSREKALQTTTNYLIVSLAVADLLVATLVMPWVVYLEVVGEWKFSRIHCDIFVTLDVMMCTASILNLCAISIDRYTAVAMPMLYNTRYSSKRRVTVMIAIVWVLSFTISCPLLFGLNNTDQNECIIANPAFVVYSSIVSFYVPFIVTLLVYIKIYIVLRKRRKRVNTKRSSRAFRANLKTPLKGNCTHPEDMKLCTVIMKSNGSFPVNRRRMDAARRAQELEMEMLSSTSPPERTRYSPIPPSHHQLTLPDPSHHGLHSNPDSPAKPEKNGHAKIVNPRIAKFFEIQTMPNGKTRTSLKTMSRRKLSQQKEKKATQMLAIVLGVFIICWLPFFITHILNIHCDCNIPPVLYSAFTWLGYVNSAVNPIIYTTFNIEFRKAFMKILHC
Procedure: as §1

[3] = Water solubility and wettability of L-methionine; format: physicochemical; conditions: flakes
[4] = system: Parkinsonian patients; conditions: 11 patients, 5 g/day, after 2 weeks, especially on akinesia, tremor and mood
[5] = system: [^3 H] spiperone binding sites (lymphocytes from Parkinsonian patients); conditions: after treatment, before treatment 7±6
[6] = system: rats; conditions: IV; cited from earlier work
[7] = system: Parkinsonism; conditions: with L-Dopa; J. Amer. Med. Assoc. 230, 305, 1974; cited from earlier work

Structure (SMILES): CSCC[C@H](N)C(=O)O [L-methionine]
- [^3 H] spiperone binding, B lymphocytes [1]: 37 ± 5 fmoles/10^6 cells
- affinity constant [KD] ([2]; KD of [^3 H] spiperone (not of L-methionine), striatum of treated mice, chronic treatment, control 0.17 nM): 0.20 nM
- [^3 H] spiperone binding, striatum ([2]; [^3 H spiperone] = 0.3 nM, L-methionine 500 mg/kg I.P. twice daily over 5 days, n = 10, **P < 0.001, control 40 ± 1): 62 ± 3 fmoles/mg protein
- number of binding sites [Bmax] ([2]; [^3 H] spiperone, striatum of treated mice, chronic treatment, control 302): 491 fmoles/mg protein
- change in affinity constant [KD] ([2]; [^3 H] spiperone, striatum, chronic treatment of L-methionine): no change in the affinity constant was detected
- solubility in water [3]: slightly soluble in water
- wettability [3]: poorly wettable
- improvement of Parkinsonism [4]: very good improvement
- number of [^3 H] spiperone binding sites to lymphocytes [5]: 98±19 fentomoles per 10^6 cells
- LD50 [6]: 4500 mg/kg
- effect on L-Dopa effectiveness in Parkinsonism [7]: may reverse the effectiveness of L-Dopa
